Tests used:
[1] = tested on: HeLaHL human cervical carcinoma tumor cells; test: Nude mouse xenograft study: in vivo growth of HeLaHL tumors, Compound 1 with or without fractionated ionizing radiation; settings: HeLaHL xenograft in Nude mice
Procedure: The human cervical carcinoma cancer cell line, HeLaHL, carrying a human Hsp70 promoter-luciferase reporter construct, was obtained from the laboratory of Dr. Richard Morimoto (Northwestern University, Evanston, Ill., USA). The cells were cultured in Dulbecco's Modified Eagle growth media prepared with 10% fetal bovine serum (FBS), 1% 100×HEPES, 1% 100× Penicillin-Streptomycin, 1% 100×L-glutamine, 1% 100× sodium pyruvate and 1% 100×MEM non-essential amino acids. FBS was obtained from American Type Culture Collection (Manassas, Va., USA) and all other reagents were obtained from Invitrogen Corp. (Carlsbad, Calif., USA). Cells that had been cryopreserved in liquid nitrogen were rapidly thawed at 37° C. and transferred to a tissue culture flask containing growth media and then incubated at 37° C. in a 5% CO2 incubator. To expand the cell line, cultures were passaged every 3 to 4 days by washing with 10 mL of room temperature phosphate buffered saline (PBS) and then disassociating cells by adding 5 mL 1× trypsin-EDTA until the cells detached from the surface of the flask. […]
Eight week old, female homozygous Crl:CD1-Foxn1^nu/nu (Nude) mice were obtained from Charles River Laboratories (Wilmington, Mass., USA). […] Cell concentration was determined using a hemocytometer. […] Tumor volumes (V) were calculated by caliper measurement of the width (W), length (L) and thickness (T) of tumors using the following formula: V=0.5236×(L×W×T).
HeLaHL tumors were then permitted to develop in vivo until the majority reached 90-240 mm^3 in tumor volume, which required approximately 2½ weeks following implantation. […] Animals were randomized into treatment groups so that the average tumor volumes of each group were similar at the start of dosing. % T/C values, as a measure of efficacy, were determined as follows: • (i) If ΔT>0: % T/C=(ΔT/ΔC)×100 • (ii) If ΔT<0: % T/C=(ΔT/T0)×100 • (iii) ΔT=Change in average tumor volume between start of dosing and the end of study. • (iv) ΔC=Change in average tumor volume between start of dosing and the end of study. • (v) T0=Average tumor volume at start of dosing. […]

[2] = Body weight and systemic toxicity in HeLaHL tumor-bearing Nude mice of the xenograft study; type: in vivo; settings: for animals removed from the study due to >20% body weight loss: 8 mice/group; for average bodyweight change relative to the start of the study: over the course of the study
Procedure: Eight week old, female homozygous Crl:CD1-Foxn1^nu/nu (Nude) mice were obtained from Charles River Laboratories (Wilmington, Mass., USA). Animals were housed 4-5/cage in micro-isolators, with a 12 hr/12 hr light/dark cycle, acclimated for at least 1 week prior to use and fed normal laboratory chow ad libitum. Studies were conducted on animals at 10 weeks of age at implantation. To implant HeLaHL tumor cells into Nude mice, cell cultures were trypsinized as above and centrifuged to pellet the cells. The supernatant was aspirated and the cell pellet was resuspended at a concentration of 1×10^8 cells/mL in non-supplemented media. Cell concentration was determined using a hemocytometer. Using a 27 gauge needle and 1 cc syringe, 0.1 mL of the cell suspension was injected subcutaneously into the flanks of Nude mice. Tumor volumes (V) were calculated by caliper measurement of the width (W), length (L) and thickness (T) of tumors using the following formula: V=0.5236×(L×W×T).
To formulate Compound 1 in 10/18 DRD, stock solutions of Compound 1 were prepared by dissolving the appropriate amounts of the compound in dimethyl sulfoxide (DMSO) by sonication in an ultrasonic water bath. Stock solutions were prepared weekly, stored at −20° C. and diluted fresh each day for dosing. A solution of 20% Cremophor RH40 (polyoxyl 40 hydrogenated castor oil; BASF Corp., Aktiengesellschaft, Ludwigshafen, Germany) in 5% dextrose in water (D5W; Abbott Laboratories, North Chicago, Ill., USA) was also prepared by first heating 100% Cremophor RH40 at 50-60° C. until liquefied and clear, diluting 1:5 with 100% D5W, reheating again until clear and then mixing well. This solution was stored at room temperature for up to 3 months prior to use. To prepare 10/18 DRD formulations for daily dosing, DMSO stock solutions were diluted 1:10 with 20% Cremophor RH40. The final 10/18 DRD formulation for dosing contained 10% DMSO, 18% Cremophor RH40, 3.6% dextrose, 68.4% water and the appropriate amount of test article. Animals were intravenously (i.v.) injected with this formulation at 10 mL per kg body weight on one day each week (on the same day with one of the 3 weekly radiation doses) for a total of 4 doses.
Animals were irradiated using a calibrated ^137Cs gamma-ray (0.662 MeV) Model 30 Mark I irradiator (J. L. Shepherd & Associates, San Fernando, Calif., USA). Tumor-bearing animals were anesthetized for approximately 4 minutes with inhaled isoflurane (IsoFlo, Abbott Laboratories, North Chicago, Ill., USA) delivered on a stream of oxygen at 0.8 L/min and 3% volume/volume on a mobile anesthesia machine (VetEquip, Pleasanton, Calif., USA). […] Anesthetized animals were positioned in the irradiator approximately 2.5 cm in front of the ^137Cs source using a restraint device capable of holding 5 animals (J. L Shepherd & Associates). Ionizing radiation was focused on the subcutaneously implanted HeLaHL tumors through a 1 cm wide collimator (J. L. […]
The ability of Compound 1 to enhance the in vivo anti-tumor activity of ionizing radiation was investigated. Tumor-bearing animals (8 mice/group) were i.v. injected 1 time per week for a total of 4 doses (open arrowheads) with 10 mL/kg of 10/18 DRD vehicle with or without 150 mg/kg Compound 1. Animals were also irradiated 3 times per week for a total of 12 doses (closed arrowheads) with 2 Gy radiation. In the combination treatment group, animals were dosed with Compound 15 hr before being irradiated on days on which both treatments were delivered together. Each group that was not dosed with Compound 1 was instead dosed with 10/18 DRD vehicle as a mock treatment. Each group that was not irradiated was instead anesthetized and restrained as a mock irradiation. Average tumor volumes for each group were determined every 3-5 days (error bars represent +/−SEM). […]

In the case of `CC(C)c1cc(-c2nnc(O)n2-c2ccc3c(ccn3C)c2)c(O)cc1O` [Compound 1, 3-(2,4-dihydroxy-5-isopropyl-phenyl)-4-(1-methyl-indol-5-yl)-5-hydroxy-[1,2,4] triazole], the “% T/C value” ([1]; 150 mg/kg Compound 1 alone, i.v., 1 time per week, 4 doses, 10/18 DRD, mock irradiation) is reported as 28%, the “% T/C value” ([1]; 150 mg/kg Compound 1 i.v. 1 time per week combined with 2 Gy radiation 3 times per week (12 doses), Compound 1 dosed 5 hr before irradiation) is reported as −36% and the “% T/C value” ([1]; 150 mg/kg Compound 1 i.v. 1 time per week combined with 3-4 Gy radiation 3 times per week (4 Gy reduced to 3 Gy on Day 40), Compound 1 dosed 5 hr before irradiation) is reported as −73%. For the same compound, the “death due to excessive body weight loss” value ([2]; 2 Gy radiation combined with 150 mg/kg Compound 1, among the animals removed from the study) was “One of the animals removed later died on Day 45”, the “animals removed from the study due to >20% body weight loss” value ([2]; 2 Gy radiation combined with 150 mg/kg Compound 1, toxicity on Day 42) was 2/8 and the “animals removed from the study due to >20% body weight loss” value ([2]; 4 Gy radiation combined with 150 mg/kg Compound 1, toxicity on Day 34) was 1/8. For the same compound, the “average bodyweight change relative to the start of the study” value ([2]; Compound 1 150 mg/kg plus 2 Gy radiation 3 times per week) was 0.4%, the “average bodyweight change relative to the start of the study” value ([2]; Compound 1 150 mg/kg plus 3-4 Gy radiation 3 times per week) was 1.2% and the “average bodyweight change relative to the start of the study” value ([2]; Compound 1 alone, 150 mg/kg i.v. 1 time per week) was 3.2%.

Reference: patent US20140051664A1, “COMBINATION THERAPY OF HSP90 INHIBITORY COMPOUNDS WITH RADIOTHERAPY” (SYNTA PHARMACEUTICALS CORP., priority 2011, published 2014)
